Source: patent US20040022870A1, “Immunogenic TLP composition” (priority 1996, published 2004)
Where a SMILES comes first, the peptide text is derived from it.

Experiments:
[1] = tested on: cytotoxic CD8 lymphocytes; experiment: Stimulation of cytotoxic CD8 lymphocytes by synthetic polypeptide; type: cell-based, human; conditions: only in patients suffering from NSCLC neoplasia
[2] = tested on: TLP antigen on primary NSCLC culture cells; experiment: Induction of TLP antigen expression on tumor cells by chemotherapy in vitro; type: cell-based, human; conditions: 10:g/ml for 48 hours; for TLP status of TLP-positive cell population after treatment: etoposide and cis-platinum
Text: The cells were processed fresh and after preparation of primary cultures (complete RPMI 1640 culture medium with the addition of FCS 10%).
Along with variation in TLP, other possible phenotype modifications (IL-2 rec (interleukin receptors), HLA-Dr (human leukocyte antigen), CD16 (lymphocyte sub-populations), etc.) induced by treatment with single or combined agents (chemotherapy, cytokines) were also studied.
In the case of TLP, freshly isolated tumor cells were obtained from a surgical NSCLC patient. After plating for 24 h and separation of fibroblasts, cells were resuspended for immunohistochemistry and cytofluorimetric assay. Briefly, CSH 419 antiserum was labeled with PE conjugated anti-rabbit IgG and incubated with the cells.
The freeing of TLP in the culture supernatant was checked using the ELISA test.

SMILES: CC[C@H](C)[C@H](NC(=O)[C@H](CO)NC(=O)[C@H](C)NC(=O)[C@H](CCC(=O)O)NC(=O)[C@H](CCCCN)NC(=O)[C@H](CC(N)=O)NC(=O)[C@@H](NC(=O)[C@@H](N)CCCNC(=N)N)[C@@H](C)O)C(=O)O [SEQ ID NO: 1, ArgThrAsnLysGluAlaSerIle] (H-RTNKEASI-OH; N-terminus and C-terminus assumed)
- stimulation of cytotoxic CD8 lymphocytes [1]: specific stimulation of the cytotoxic CD8 lymphocytes

SMILES: N.N.[Cl][Pt][Cl] [cis-platinum]
- TLP status of TLP-negative cell population after treatment [2]: became TLP-positive
- TLP status of TLP-positive cell population after treatment [2]: remained TLP positive

SMILES: COc1cc([C@@H]2c3cc4c(cc3[C@@H](O[C@@H]3O[C@@H]5CO[C@@H](C)O[C@H]5[C@H](O)[C@H]3O)[C@H]3COC(=O)[C@H]23)OCO4)cc(OC)c1O [etoposide]
- TLP status of TLP-negative cell population after treatment [2]: became TLP-positive
- TLP status of TLP-positive cell population after treatment [2]: remained TLP positive
